Experimental data: PMC12903969, “Discovery of a Novel and Potent Kir4.1 Inhibitor as a Safe and Rapid‐Onset Antidepressant Agent in Mice” (Advanced Science, 2025)
Where two headings read alike, the source gives them in different places.

Assays:
[1] = tested on: MDA-MB-468 breast cancer cells; assay: Cytotoxicity test (CCK-8); assay type: cell-based; details: read-out: IC50 ± SD (μM) for MDA-MB-468 Inhibition
Experimental: Cytotoxicity of all the tested compounds was determined using the cell counting kit‐8 (CCK‐8) assay kit (Beyotime, Shanghai, China). Briefly, MDA‐MB‐468 was cultured in L15 medium and plated in 96‐well plates at a density of 12,000 cells per well for 24 h at 37 °C in a 5% CO2 incubator. The tested compounds were dissolved in DMSO and diluted with culture medium (DMSO final concentration < 0.4%). Then the cells were treated with compounds (0.41, 1.23, 3.70, 11.11, 33.33, 100.00 µM) for 48 h. After treatments, removal of the supernatant liquor, 100 µL of new media diluted CCK‐8 solution (10% CCK‐8) was added into each well and incubated at 37 °C for 2 h. The absorbance of the mixture was directly measured at 450 nm. The results are presented as a percentage of the control.

Kir4.1 = biological target: T1, Kir4.1 (Homo sapiens, UniProt P78508); assay: Whole-cell patch clamp, Kir4.1 currents in transfected CHO-K1 cells; assay type: cell-based; details: for inhibition at 1 µM: CHO-K1, 1 μM; for inhibition at 10 µM: CHO-K1, 10 μM; for inhibition at 0.5 µM: CHO-K1, 0.5 μM
T1 construct: host or cells: CHO-K1
T1 sequence (P78508 1-379): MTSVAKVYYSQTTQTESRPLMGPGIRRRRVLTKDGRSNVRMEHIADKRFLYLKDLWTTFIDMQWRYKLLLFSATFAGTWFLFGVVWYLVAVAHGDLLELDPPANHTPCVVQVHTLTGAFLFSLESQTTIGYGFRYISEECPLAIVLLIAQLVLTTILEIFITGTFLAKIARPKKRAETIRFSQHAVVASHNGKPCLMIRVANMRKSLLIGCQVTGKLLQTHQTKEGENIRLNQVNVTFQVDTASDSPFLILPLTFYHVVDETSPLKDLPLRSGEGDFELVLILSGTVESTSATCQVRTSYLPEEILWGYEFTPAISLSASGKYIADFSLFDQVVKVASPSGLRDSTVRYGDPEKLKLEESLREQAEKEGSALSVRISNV
Experimental: Plasmids encoding WT human potassium channels Kir1.1, Kir2.1, Kir2.2, Kir4.1, and Kir4.2 were obtained from the Beijing Genomics Institute. All point mutations were constructed using the QuickChange II Site‐Directed Mutagenesis Kit (Stratagene) and subsequently verified by sequencing.
CHO‐K1 cells were maintained in DMEM/F12 growth medium containing 10% fetal bovine serum. Plasmids encoding the target genes (3600 ng) and enhanced green fluorescent protein (400 ng) were cotransfected into cells using Lipofectamine 2000 (Invitrogen) in accordance with the manufacturer's instructions. Cells were seeded onto poly‐d‐lysine (PDL)‐coated glass coverslips 1 h prior to electrophysiological recordings. All cells were cultured under standard conditions of 5% CO2 at 37 °C.
Whole‐cell patch‐clamp recordings were obtained either in transiently transfected CHO‐K1 cells or in primary cultured astrocytes at room temperature using standard patch‐clamp techniques with an Axopatch‐700B amplifier (Axon Instruments). The signals were filtered at 2 kHz and sampled at 20 kHz using the Digidata 1440A interface (Axon Instruments). The resistance of borosilicate glass pipettes was typically 2–4 MΩ when filled with the internal solution. Drug application was facilitated using a BPS perfusion system (ALA Scientific Instruments). Macroscopic currents generated by expressed potassium channels were recorded under the voltage‐clamp conditions with an internal pipette solution composed of (in mM): 140 KCl, 5 NaCl, 1 CaCl2, 1 MgCl2, 10 HEPES, and 10 EGTA, pH 7.2 adjusted with KOH. The external solution contained (in mM): 140 NaCl, 5 KCl, 2 CaCl2, 1 MgCl2, 10 glucose, and 10 HEPES, pH 7.4 adjusted with NaOH. Currents were elicited with a hyperpolarized voltage at −120 mV from the holding potential of −80 mV, followed by a ramp voltage depolarizing to +50 mV. Astrocytic resting membrane potentials were recorded under current‐clamp conditions (I = 0 pA) using standard internal and external solutions, determined immediately after achieving whole‐cell mode.

[2] = Homo sapiens, MDA-MB-468, MDA-MB-468 breast cancer cells
[3] = +50 mV, read-out: Kir4.1 Inhibition ± SD (%) at 1 μM, +50 mV
[4] = -120 mV, read-out: Kir4.1 Inhibition ± SD (%) at 1 μM, -120 mV
[5] = +50 mV, read-out: Kir4.1 Inhibition ± SD (%) at 10 μM, +50 mV
[6] = -120 mV, read-out: Kir4.1 Inhibition ± SD (%) at 10 μM, -120 mV

| SMILES | inhibition at 1 µM (Kir4.1; [3]) [%] | inhibition at 1 µM (Kir4.1; [4]) [%] | inhibition at 10 µM (Kir4.1; [5]) [%] | inhibition at 10 µM (Kir4.1; [6]) [%] | Kir4.1 Inhibition ± SD (%) at 10 μM, +50 mV (Kir4.1; 10 μM, +50 mV) [%] | Kir4.1 Inhibition ± SD (%) at 10 μM, -120 mV (Kir4.1; 10 μM, -120 mV) [%] | inhibition at 0.5 µM (Kir4.1; +50 mV, read-out: Kir4.1 Inhibition ± SD (%) at 0.5 μM, +50 mV) [%] | inhibition at 0.5 µM (Kir4.1; -120 mV, read-out: Kir4.1 Inhibition ± SD (%) at 0.5 μM, -120 mV) [%] | IC50 [1, 2] [µM] | IC50 ([1]; MDA-MB-468 breast cancer cells) [µM] |
| --- | --- | --- | --- | --- | --- | --- | --- | --- | --- | --- |
| OC(CNc1nccc(Nc2ccc3oc4ccccc4c3c2)n1)CN1CCOCC1 (stereo not drawn) [JX3234, 1-((4-(dibenzo[b,d]furan-2-ylamino)pyrimidin-2-yl)amino)-3-morpholinopropan-2-ol] | 11.2 ± 5.26 | 5.91 ± 6.31 | 94.83 ± 0.75 | 88.4 ± 2.42 | – | – | – | – | 17.1 ± 0.83 | – |
| C1=Nc2ccccc2Oc2ccc(Nc3ccnc(NCCCN4CCOCC4)n3)cc21 [JX3214, N^4-(dibenzo[b,f][1,4]oxazepin-2-yl)-N^2-(3-morpholinopropyl)pyrimidine-2,4-diamine] | 60.4 ± 6.32 | 56.6 ± 3.9 | 93.6 ± 4.14 | 94.52 ± 0.7 | – | – | – | – | 4.64 ± 0.41 | – |
| CN(CCCN1CCOCC1)c1nccc(Nc2ccc3oc4ccccc4c3c2)n1 [JX3232, N^4-(dibenzo[b,d]furan-2-yl)-N^2-methyl-N^2-(3-morpholinopropyl)pyrimidine-2,4-diamine] | 6.81 ± 4.5 | -2.25 ± 0.47 | 96.94 ± 0.69 | 93.2 ± 1.48 | – | – | – | – | 6.77 ± 0.68 | – |
| c1ccc2c(c1)oc1ccc(Nc3cncc(NCCCN4CCOCC4)c3)cc12 [JX3221, N^3-(dibenzo[b,d]furan-2-yl)-N^5-(3-morpholinopropyl)pyridine-3,5-diamine] | -2.41 ± 3.2 | -4.84 ± 3.28 | 96.6 ± 1.14 | 90.4 ± 5.72 | – | – | – | – | 21.2 ± 1.06 | – |
| O=C1c2ccccc2-c2cc(Nc3ccnc(NCCCN4CCOCC4)n3)ccc21 [JX3211, 3-((2-((3-morpholinopropyl)amino)pyrimidin-4-yl)amino)-9H-fluoren-9-one] | 28.8 ± 5.45 | 21.3 ± 8.61 | 89.2 ± 1.72 | 81 ± 2.36 | – | – | – | – | 29.8 ± 0.5 | – |

More lines, main results first:

| inhibition at 1 µM (Kir4.1; [3]) [%] | inhibition at 1 µM (Kir4.1; [4]) [%] | inhibition at 10 µM (Kir4.1; [5]) [%] | inhibition at 10 µM (Kir4.1; [6]) [%] | Kir4.1 Inhibition ± SD (%) at 10 μM, +50 mV (Kir4.1; 10 μM, +50 mV) [%] | Kir4.1 Inhibition ± SD (%) at 10 μM, -120 mV (Kir4.1; 10 μM, -120 mV) [%] | inhibition at 0.5 µM (Kir4.1; +50 mV, read-out: Kir4.1 Inhibition ± SD (%) at 0.5 μM, +50 mV) [%] | inhibition at 0.5 µM (Kir4.1; -120 mV, read-out: Kir4.1 Inhibition ± SD (%) at 0.5 μM, -120 mV) [%] | SMILES | IC50 [1, 2] [µM] | IC50 ([1]; MDA-MB-468 breast cancer cells) [µM] |
| --- | --- | --- | --- | --- | --- | --- | --- | --- | --- | --- |
| 10.8 ± 2.21 | 6.83 ± 3.85 | 92.4 ± 3.68 | 85.4 ± 5.46 | – | – | – | – | c1ccc2c(c1)oc1ccc(Nc3ccnc(NCC4(CN5CCOCC5)CC4)n3)cc12 [JX3235, N^4-(dibenzo[b,d]furan-2-yl)-N^2-((1-(morpholinomethyl)cyclopropyl)methyl)pyrimidine-2,4-diamine] | 11.3 ± 0.32 | – |
| 12.5 ± 7.25 | 7.65 ± 4.73 | 89.1 ± 3.59 | 73.8 ± 0.93 | – | – | – | – | CC(C)(C)OC(=O)NCCCNc1nccc(Nc2ccc3oc4ccccc4c3c2)n1 [JX3237, tert-butyl (3-((4-(dibenzo[b,d]furan-2-ylamino)pyrimidin-2-yl)amino)propyl)carbamate] | 4.84 ± 0.06 | – |
| – | – | 63.3 ± 6.48 | 15.6 ± 0.73 | – | – | – | – | c1ccc2c(c1)oc1ccc(N3CCC4(CCN(CCCN5CCOCC5)CC4)CC3)cc12 [JX3230, 4-(3-(9-(dibenzo[b,d]furan-2-yl)-3,9-diazaspiro[5.5]undecan-3-yl)propyl)morpholine] | > 50 | – |
| – | – | 2.61 ± 1.87 | 3.98 ± 1.6 | – | – | – | – | c1cc(NCCCN2CCOCC2)nc(Nc2ccc3oc4ccccc4c3c2)c1 [JX3220, N^2-(dibenzo[b,d]furan-2-yl)-N^6-(3-morpholinopropyl)pyridine-2,6-diamine] | 8.74 ± 0.36 | – |
| – | – | – | – | 64.79 ± 0.85 | 31.27 ± 3.29 | – | – | c1cc(NC23CC4CC(CC(C4)C2)C3)nc(NCCCN2CCOCC2)n1 [JX3203, N^4-((1s,3s)-adamantan-1-yl)-N^2-(3-morpholinopropyl)pyrimidine-2,4-diamine] | – | 22.2 ± 5.05 |
| 96.35 ± 0.66 | 92.48 ± 0.8 | 96.84 ± 0.61 | 95.5 ± 2.8 | – | – | 21.4 ± 6.07 | 9.76 ± 2.44 | CC1CCN(CCCNc2nccc(Nc3ccc4oc5ccccc5c4c3)n2)CC1 [JX3245, N^4-(dibenzo[b,d]furan-2-yl)-N^2-(3-(4-methylpiperidin-1-yl)propyl)pyrimidine-2,4-diamine] | 5.95 ± 0.04 | – |
